# Measurements from patent US5439884A, “Method of controlling fertilization using bombesin or its agonist” (Oregon Regional Primate Research Center, priority 1992, dated 1995).
# Where a SMILES comes first, the peptide text is derived from it. [ ]: non-standard residue; d: D form. dPhe(F5) = N[C@H](Cc1c(F)c(F)c(F)c(F)c1F)C(=O)O
# Columns and labels:
# sperm [1] = experiment: acrosome reaction, analogs alone or in the presence of GRP (sperm species not stated); assay type: cell-based; details: for % Acrosome Reacted, Analog + GRP: analog 50 nM + GRP 2 nM; for % Acrosome Reacted, Analog: analog alone, final concentration 50 nM, blank control 6.000 ± .707
# Protocol: (§1) The acrosome reaction, which is necessary for sperm to fertilize the egg, was induced by the following methods.
# (§2) For monkeys, sperm was collected, washed twice in balanced salts, resuspended in lactate/bicarbonate and dibutyryl cAMP, and then incubated for 60 minutes. […] See Wolf, D. P. et al. Mol. Reprod. Dev. 27:261-280 (1990); Lanzendorf, S. E. et al. Mol. Reprod. Dev. 25:61-66 (1990); and Wolf D. P. et al. Biol. Reprod. 41:335-346 (1989). All of these three publications are hereby incorporated by reference.
# (§3) To measure the effects of bombesin on the acrosome reaction, capacitation was conducted in the presence or absence of bombesin. After incubation, samples of sperm were removed to determine the percentage of sperm which had undergone the acrosome reaction as measured with an acrosome specific monoclonal antibody and FITC fluorescence [see Wolf, D. P. Am. J. Reprod. Immunol. 20:106-113 (1989), which is hereby incorporated by reference].
# […] bombesin analogs, BIM 26136, BIM 26187, BIM 26189, BIM 26224, BIM 26226, BIM 26244, and BIM 26028, were used to test their effect on the acrosome reaction, either alone or in the presence GRP, in a manner described above.
# sperm [2] = details: high doses, 1 μg/ml; cited from earlier work
# monkey sperm = experiment: acrosome reaction in monkey sperm (acrosome specific monoclonal antibody, FITC fluorescence); assay type: cell-based, monkeys (rhesus); details: for stimulation of the spontaneous acrosome reaction: monkeys (rhesus)
# Protocol: as §1, §2, §3
# human sperm = experiment: acrosome reaction in human sperm; assay type: cell-based; details: for stimulation of the spontaneous acrosome reaction: humans
# Protocol: as §1, §3
# new GRP receptor = experiment: response of new GRP receptor in transfected cells and Xenopus oocytes; assay type: cell-based, rat
# Description: A new GRP receptor, which is expressed in very high levels in rat sperm, has recently been cloned. cDNA encoding this receptor was used to determine if this new GRP receptor is expressed in primate sperm.
compound,measurement,setting,value
H-D-Nal-Gln-Trp-Ala-Val-Gly-His-Leu-.psi.(CH2 -NH)-Phe-NH2 [BIM 26136],rank in inducing the acrosome reaction among the analogs tested,"sperm [1]; Table 1, 50 nM",most potent
same,"% Acrosome Reacted, Analog + GRP",sperm [1],10.000 ± 1.225%
same,"% Acrosome Reacted, Analog",sperm [1],11.000 ± .408%
CC(=O)[C@H]1CC[C@H]2[C@@H]3CCC4=CC(=O)CC[C@]4(C)[C@H]3CC[C@]12C [progesterone],induction of the acrosome reaction,sperm [2],induce the acrosome reaction
H-Ala-Pro-Val-Ser-Val-Gly-Gly-Gly-Thr-Val-Leu-Ala-Lys-Met-Tyr-Pro-Arg-Gly-Asn-His-Trp-Ala-Val-Gly-His-Leu-Met-NH2 (H-APVSVGGGTVLAKMYPRGNHWAVGHLM-NH2) [GRP],stimulation of the spontaneous acrosome reaction,monkey sperm,stimulate
same,stimulation of the spontaneous acrosome reaction,human sperm,stimulate
same,concentration at which active in stimulating the acrosome reaction,sperm [1],1 nM
same,"% Acrosome Reacted, GRP without analog (blank control line, GRP column)","sperm [1]; GRP final concentration 2 nM, no analog",18.000 ± 3.629%
same,reaction of the new receptor to the peptide,new GRP receptor,reacted only weakly
H-D-Phe-Gln-Trp-Ala-Val-Gly-His-Leu-Cpa-NH2 [BIM 26169],"% Acrosome Reacted, Analog + GRP",sperm [1],6.000 ± .408%
same,"% Acrosome Reacted, Analog",sperm [1],10.000 ± .913%
"CC(C)C[C@H](NC(=O)[C@H](CC(C)C)NC(=O)[C@H](Cc1c[nH]cn1)NC(=O)CNC(=O)[C@@H](NC(=O)[C@H](C)NC(=O)[C@H](Cc1c[nH]c2ccccc12)NC(=O)[C@H](CCC(N)=O)NC(=O)[C@H](N)Cc1ccccc1)C(C)C)C(N)=O [BIM 26137, H-D-Phe-Gln-Trp-Ala-Val-Gly-His-Leu-Leu-NH2]","% Acrosome Reacted, Analog + GRP",sperm [1],7.000 ± .707%
same,"% Acrosome Reacted, Analog",sperm [1],7.000 ± .707%
Neuromedin B,reaction of the new receptor to the peptide,new GRP receptor,reacted only weakly
"CSCC[C@H](NC(=O)[C@H](CC(C)C)NC(=O)[C@H](Cc1cnc[nH]1)NC(=O)CNC(=O)[C@@H](NC(=O)[C@H](C)NC(=O)[C@H](Cc1c[nH]c2ccccc12)NC(=O)[C@H](CCC(N)=O)NC(=O)[C@H](CC(N)=O)NC(=O)CNC(=O)[C@H](CC(C)C)NC(=O)[C@H](CCCN=C(N)N)NC(=O)[C@H](CCC(N)=O)NC(=O)[C@@H]1CCC(=O)N1)C(C)C)C(N)=O [bombesin, H-pGlu-Gln-Arg-Leu-Gly-Asn-Gln-Trp-Ala-Val-Gly-His-Leu-Met-NH2]",increase in the acrosome reaction,"monkey sperm; monkey sperm, concentrations as low as 5 nM bombesin, FIG. 2",2 fold
same,stimulation of the spontaneous acrosome reaction,monkey sperm,stimulate
same,increase in the acrosome reaction,"human sperm; human sperm, concentrations as low as 5 nM bombesin, FIG. 2",2 fold
same,stimulation of the spontaneous acrosome reaction,human sperm,stimulate
"CCCC[C@H](NC(=O)[C@H](Cc1ccccc1)NC(=O)[C@H](Cc1c[nH]cn1)NC(=O)CNC(=O)[C@@H](NC(=O)[C@H](C)NC(=O)[C@H](Cc1c[nH]c2ccccc12)NC(=O)[C@H](CCC(N)=O)NC(=O)[C@H](N)Cc1ccccc1)C(C)C)C(N)=O [BIM 26224, H-D-Phe-Gln-Trp-Ala-Val-Gly-His-Phe-Nle-NH2]","% Acrosome Reacted, Analog + GRP",sperm [1],6.000 ± 1.000%
same,"% Acrosome Reacted, Analog",sperm [1],9.000 ± 1.581%
"COC(=O)[C@H](CC(C)C)NC(=O)[C@H](Cc1c[nH]cn1)NC(=O)[C@@H](C)NC(=O)[C@@H](NC(=O)[C@H](C)NC(=O)[C@H](Cc1c[nH]c2ccccc12)NC(=O)[C@H](CCC(N)=O)NC(=O)[C@H](N)Cc1c(F)c(F)c(F)c(F)c1F)C(C)C [BIM 26226, H-D-F5 -Phe-Gln-Trp-Ala-Val-D-Ala-His-Leu-OCH3] (H-[dPhe(F5)]QWAV[dA]HL-OMe)","% Acrosome Reacted, Analog + GRP",sperm [1],12.000 ± .707%
same,"% Acrosome Reacted, Analog",sperm [1],9.000 ± 1.780%
